Measurements published in patent US11708283B2, “Metal-chelating compositions and their use in methods of removing or inhibiting barium scale” (CORNELL UNIVERSITY, priority 2018, dated 2023).

Assays:
[1] = Thermodynamic stability constants of Ba^2+ complexes by pH-potentiometry; type: binding; details: for pBa (−log [M^2+]free): [M^2+] = 10^−6M, [L] = 10^−5M; for pBa (−log [M^2+]free) / log KBaH2L / log KBaHL / log KBaL / major species present at pH 7.4 in the presence of Ba^2+: 25° C.; for pBa (−log [M^2+]free) / log K′Ba (conditional stability constant) / log KBaH2L / log KBaHL / log KBaL: I = 0.1M KCl; for log K′Ba (conditional stability constant): pH 7.4, 25° C., calculated from protonation and stability constants; for log KBaH2L / log KBaHL / log KBaL: pH-potentiometry; for major species present at pH 7.4 in the presence of Ba^2+: speciation, [Ba^2+]tot=[L]tot=1.0 mM, I=0.1 M KCl
Experimental: Potentiometric measurements were carried out using a titrator equipped with a combination electrode and an exchange unit with an automatic burette (10 mL). The titration vessel was fitted with a removable glass cell (˜70 mL) and was thermostated at 25° C. using a circulating water bath. CO2 was excluded from the vessel prior to and during the titrations using a small positive pressure of Ar that was passed through a solution of 30 wt % KOH. […] Hydrochloric acid (0.1 M) was standardized against freshly prepared KOH. […] Before every titration, the electrode was calibrated in terms of hydrogen ion concentration by titrating a solution of standardized HCl (5 mM) containing supporting electrolyte (95 mM) with standardized KOH (2 mL).
ICP standards of calcium, strontium, and barium in dilute HNO3 were employed in the titrations. […] Stability constants were measured for the alkaline earth complexes of macropa^2− and macropaquin^2− by adding standardized KOH to a solution (20 mL) containing ligand (0.02 mmol), metal (0.02 mmol), 1 M KCl (1.9 mmol), and a portion of 0.1 M HCl sufficient to bring the total acid content (HCl+HNO3) to 0.1 mmol. The titration method employed either a 0.1 mV/min or 0.2 mV/min drift limit with a maximum wait time of 300 seconds between addition of base and measurement. […] These pH ranges reflect the portion of the titration curves in which metal binding is occurring. Using the protonation constants measured for each ligand, the stability constants (Equations 2-4, below) were calculated from the average of at least 3 independent titrations using appropriate software. Proton concentration was admitted as a refineable parameter. […] The errors given for the stability constants correspond to one standard deviation.
The alkaline earth stability constants for macroquin-SO3^4− were determined using a system in which each ligand titration was paired with a ligand-metal titration. These pairwise titrations permitted the ligand concentration for the metal-ligand titrations to be known with reasonable certainty from the refinement of the ligand-only titrations. […] The same titration method was employed as described above for macropa^2− and macropaquin^2−. […] Stability constants were calculated as described above.
Log conditional constants (log K′) of the alkaline earth complexes at pH 7.4 were calculated using the experimentally determined protonation and stability constants. These constants are expressed by the following equation:
In the above equation, [(ML)′]=[ML]+[MHL]+[MH2L], and [HnL]=[L], [HL], [H2L] . . . [HnL].

[2] = Protonation constants of the ligands by pH-potentiometric titration; type: physicochemical; details: for occurrence of the fully deprotonated ligand in solution: ligand speciation versus pH; for log Ka1 / log Ka2 / log Ka3 / log Ka4: pH-potentiometry, 25° C., I = 0.1M KCl
Experimental: Potentiometric measurements were carried out using a titrator equipped with a combination electrode and an exchange unit with an automatic burette (10 mL). The titration vessel was fitted with a removable glass cell (˜70 mL) and was thermostated at 25° C. using a circulating water bath. CO2 was excluded from the vessel prior to and during the titrations using a small positive pressure of Ar that was passed through a solution of 30 wt % KOH. Carbonate-free KOH (˜0.1 M) was prepared by dissolving KOH pellets (semiconductor grade, 99.99% trace metals basis) in freshly boiled water (≥18 MΩ-cm) and was standardized by potentiometric titration against potassium hydrogen phthalate. Hydrochloric acid (0.1 M) was standardized against freshly prepared KOH. Titration solutions were maintained at a constant ionic strength of 0.1 M using KCl (≥99.5%) and were equilibrated for 15 minutes prior to the addition of titrant. Before every titration, the electrode was calibrated in terms of hydrogen ion concentration by titrating a solution of standardized HCl (5 mM) containing supporting electrolyte (95 mM) with standardized KOH (2 mL). Data within the pH ranges of 2.5-3.2 and 10.8-11.2 were analyzed using software to obtain the standard electrode potential (E0) and slope factor. Owing to the sharp rise in pH at the titration endpoint (pH 3.2-10.8), data obtained in this region are subject to significant error and were therefore excluded from the calibration analysis. A pKw value of 13.78 was taken from the literature (Baes, C. F.; Mesmer, R. E. The Hydrolysis of Cations; Wiley: New York, 1976).
Stock solutions of macropa and macropaquin were prepared in H2O. […] The exact ligand concentrations were determined from the potentiometric titration curves with KOH. Protonation equilibria of macropa^2− and macropaquin^2− were determined by adding standardized KOH to a solution (20 mL) containing ligand (˜0.02 mmol), 0.1 M HCl (0.1 mmol), and 1 M KCl (1.9 mmol). The titration method employed a 0.1 mV/min drift limit with a maximum wait time of 90 sec between addition of base and measurement. At least 70 data points were collected over the pH range of 2.5-10.5 (macropa) or 2.5-11.3 (macropaquin). The protonation constants, defined in Eq. 1, were calculated from the average of at least 4 independent titrations using the appropriate software.
Both ligand (L) and proton concentrations were admitted as refineable parameters. The errors given for the protonation constants correspond to one standard deviation. The protonation constants measured for macropa^2− were consistent with those previously reported (Roca-Sabio et al., 2009, supra); log Ka5 was not able to be determined under the conditions employed here. Protonation equilibria of macroquin-SO3^4− were determined by titrating standardized HCl (˜5.19 mL) into a solution (62.5 mL) containing ligand (˜0.013 mmol, 10.4 mg), KOH (0.25 mmol), and 1 M KCl (6 mmol). The same titration method was employed as described above for the other two ligands. At least 90 data points over the pH range of 4.0-10.8 were included in the refinement; no additional protonation constants could be refined when data from pH 2.5-3.99 were included. The protonation constants were calculated from the average of 15 independent titrations.

log KBaH2L [1] | log KBaHL [1] | log KBaL [1] | major species present at pH 7.4 in the presence of Ba^2+ [1] | overall basicity of the ligand, sum of log Ka values [2] | occurrence of the fully deprotonated ligand in solution [2] | log Ka1 [2] | log Ka2 [2] | log Ka3 [2] | log Ka4 [2] | Structure (SMILES) | pBa (−log [M^2+]free) ([1]; pH 7.4) | log K′Ba (conditional stability constant) [1] | further results
3.28(2) | 9.76(2) | 10.87 | MHL | 27.69 | do not exist in solution below pH 8 | 10.33 | 7.15 | 6.97 | 3.24(4) | O=C(O)c1cccc(CN2CCOCCOCCN(Cc3ccc4cccc(O)c4n3)CCOCCOCC2)n1 [macropaquin, 6-((16-((8-hydroxyquinolin-2-yl)methyl)-1,4,10,13-tetraoxa-7,16-diazacyclooctadecan-7-yl)methyl)picolinic acid] | 11.01 | 10.05 | fraction of ligand as monoprotonated species HL^− ([2]; pH 7.4): 56%; log Ka1 ([2]; listed as macropaquin^2−): 10.33(4); log Ka2 ([2]; listed as macropaquin^2−): 7.15(3); log Ka3 ([2]; listed as macropaquin^2−): 6.97(2)
– | – | – | – | – | – | – | – | – | – | O=C(O)CN1CCN(CC(=O)O)CCN(CC(=O)O)CCN(CC(=O)O)CC1 [DOTA, reference compound] | 6.76 | 5.72 | –
7.80(2) | 9.24(7) | 10.44 | MH2L | 32.14 | do not exist in solution below pH 8 | 9.34 | 9.43 | 6.75 | 6.62 | O=S(=O)(O)c1ccc(O)c2nc(CN3CCOCCOCCN(Cc4ccc5c(S(=O)(=O)O)ccc(O)c5n4)CCOCCOCC3)ccc12 [macroquin-SO3, 2,2′-((1,4,10,13-tetraoxa-7,16-diazacyclooctadecane-7,16-diyl)bis(methylene))bis(8-hydroxyquinoline-5-sulfonic acid)] | 9.72 | 8.76 | fraction of ligand present as H2L^2− ([2]; pH 7.4): 78%; log Ka1 ([2]; listed as macroquin-SO3^4−): 9.34(4); log Ka2 ([2]; listed as macroquin-SO3^4−): 9.43(1); log Ka3 ([2]; listed as macroquin-SO3^4−): 6.75(4); log Ka4 ([2]; listed as macroquin-SO3^4−): 6.62(4)

Structure (SMILES) | log KBaH2L [1] | log KBaHL [1] | log KBaL [1] | major species present at pH 7.4 in the presence of Ba^2+ [1] | overall basicity of the ligand, sum of log Ka values [2] | occurrence of the fully deprotonated ligand in solution [2] | log Ka1 [2] | log Ka2 [2] | log Ka3 [2] | log Ka4 [2] | pBa (−log [M^2+]free) ([1]; pH 7.4) | log K′Ba (conditional stability constant) [1] | further results
O=C(O)c1cccc(CN2CCOCCOCCN(Cc3cccc(C(=O)O)n3)CCOCCOCC2)n1 [macropa, 6,6-((1,4,10,13-tetraoxa-7,16-diazacyclooctadecane-7,16-diyl)bis(methylene))dipicolinic acid] | 2.49(7) | 3.76(2) | 11.11 | – | 19.99 | – | 7.41 | 6.899 | 3.23(1) | 2.45(5) | 11.69 | 10.74 | log KBaL lower than that for DOTA by [1]: 0.64 log units; Ba^2+ bound by ligand ([1]; pH 4.0, speciation): 90%; Ba^2+ complexed by ligand ([1]; pH 5.1, speciation): 99%; log K′Ba greater than those for DOTA and DTPA by ([1]; pH 7.4): 5-6 orders of magnitude; selectivity for Ba^2+ over Ca^2+ (ratio of pM values) ([1]; pH 7.4): 1.79 fold; selectivity for Ba^2+ over Sr^2+ (ratio of pM values) ([1]; pH 7.4): 1.17 fold; fraction of ligand fully deprotonated (L^2−) ([2]; pH 7.4): 43%; log Ka1 ([2]; listed as macropa^2−): 7.41(1); log Ka2 ([2]; listed as macropa^2−): 6.899(3)
